Test [1] concerns phosphatidylcholine (PC) liposomes. The test is described as follows: Yeast proteome chip probed with PC liposomes. Conditions: liposome binding signal on yeast proteome chip, Cy3-streptavidin detection. The text has this: To identify PI-binding proteins in yeast, liposomes were used as probes because the liposome provides the most relevant physiological condition to assay the interactors. Six types of liposomes were used. Each contains phosphatidylcholine (“PC”) with 1% (w/w) N-(biotinoyl)-1,2-dihexadecanoyl-sn-glycero-3-phosphoethanolamine, triethylammonium salt (biotin DHPE). The biotinylated lipid serves as a label that can be detected by Cy3-streptavidin (21). In addition to PC, the five other liposomes contain either 5% (w/w) PI(3)P, PI(4)P, PI(3,4)P2, PI(4,5)P2, or PI(3,4,5)P3 (FIG. 3A).
The protein-liposome interaction was assayed as follows. Appropriate amounts of each lipid in chloroform were mixed and dried under nitrogen. The lipid mixture was resuspended in TBS buffer by vortexing. The liposomes were created by sonication. Blocked proteome chips were washed three to five times in PBS buffer, and the extra liquid on the glass surface was removed by tapping the slides vertically on a KIMWIPE™. 200 μl of liposome solution was added to the proteome chip and immediately covered by a hydrophobic plastic cover slip (GRACE BIO-LAB™, USA). After trapped air bubbles were removed, the chip was incubated in a humidity chamber at RT for one hour. To remove the cover slip, the chip was immersed into large volume of PBS buffer (50 ml), so that the slip would float away. The chip was then moved to a second PBS bath (>50 ml) and washed 3×5 min with shaking at RT. After removing extra liquid on the surface of the chip, about 100 μl of Cy3 or Cy5 conjugated streptavidin (PIERCE™, USA; 1:2000 to 1:4000 dilution) was added to the surface and covered by a hydrophobic plastic cover slip (GRACE BIO-LABS™, USA). The chip was incubated for greater than 30 min in the dark at RT. The chip was then washed as described above. To completely remove the liquid on the chip, the chip was spun to dryness at 1500-2000 rpm for 5-10 min at RT.
• 1. S. Fields, Y. Kohara, D. J. Lockhart, Proc. Natl. Acad. Sci. 96, 8825 (1999); A. Goffeau et al., Science 274, 563 (1996). • 2 P. Ross-Macdonald et al., Nature 402, 413 (1999); J. L., DeRisi, V. R. Iyer, P. O. Brown, Science 278, 680 (1997); E. A. Winzeler et al., Science 285, 901 (1999). P. Uetz et al., Nature 403, 623 (2000); T. Ito et al., Proc. Natl. Acad. Sci. USA. 97, 1143 (2000) • 3 H. Zhu, M. Snyder, Curr. Opin. Chem. Biol. 5, 40 (2001). • 4 M. R. Martzen et al., Science 286, 1153 (1999). • 5 H. Zhu et al., Nat. Genet. 26, 283 (2000). • 6 G. MacBeath, S. L. Schreiber, Science 289, 1760 (2000). • 7 A. Caveman, J. Cell Sci. 113, 3543 (2000). • 8 P. Arenkov et al., Anal. Biochem 278, 123 (2000). • 9 D. A. Mitchell, T. K. Marshall, R. J. Deschenes, Yeast 9, 715 (1993). The expression vector pEGH was created by inserting an RGS-HisX6 epitope tag between the GST gene and the polycloning site of pEG(KG). The yeast ORFs were cloned using the strategy described previously (5), except every step was done in a 96-well format. Plasmid DNAs confirmed by DNA sequencing were reintroduced into both yeast (Y258) and E. coli (DH5a). […] 0.1 mM calcium was present in buffers in all subsequent steps. The chip was washed three times with PBS at RT. Cy3-conjugated streptavidin (Jackson IR, USA) (1:5000 dilution) was added to the chip and incubated for 30 min at RT. After extensive washing, the chip was spun dry and scanned using a microarray scanner; the data was subsequently acquired with the GENEPIX™ array densitometry software (Axon, USA). • 12 S. S. Hook, A. R. Means, Annu. Rev. […]

For test [2], the system named is phospholipids (phosphatidylinositols vs phosphatidylcholine). The experiment in a line: Proteome chip lipid-binding screen, overall analysis of six liposomes (PI/PC specificity). The following applies: phospholipid liposome probes. The text has this: FIGS. 4A-4D. Analysis of the phosphatidylinositol-binding proteins. To determine the phosphatidylinositol (“PI”)-binding specificity of 150 positive proteins, their binding signals were normalized against the corresponding binding signals of phosphatidylcholine (“PC”). Based on the ratios (“PI/PC”), the proteins were grouped into four categories: (A) 30 strong and specific, (B) 43 strong and nonspecific, (C) 19 weak and specific, and (D) 58 weak and nonspecific phosphatidylinositol-binding proteins. The intensity represents the PI/PC signal ratio as shown by the scale in the figure. The column, labeled “10^n” to the right of the PI/PC binding ratios indicates the maximum binding signal intensity (open boxes) and its confidence interval (solid horizontal lines); the numbers indicate the log of the values. Boxes in the three columns to the right of the confidence interval column indicate membrane-associated proteins (“Membrane”), kinases (“Kinase”), and uncharacterized ORFs (“Unknown”), respectively.
To identify PI-binding proteins in yeast, liposomes were used as probes because the liposome provides the most relevant physiological condition to assay the interactors. Six types of liposomes were used. […] The biotinylated lipid serves as a label that can be detected by Cy3-streptavidin (21). […]

For the substance “RIM15: yeast protein kinase, regulator of glucose metabolism, GST-HisX6 fusion”, the PC in test [1] stood at 244.76. The “identified as lipid-binding interactor” value in test [2] is recorded as “identified”.

The values are drawn from patent publication US20050182242A1, “Global analysis of protein activities using proteome chips” (priority 2001, published 2005).
